# Source: article PMC7271538 (Frontiers in Microbiology, 2020)
# Structures can show the parent of a compound that is named as a salt. Where two headings read alike, the source gives them in different places.
# Target: T1, prolyl oligopeptidase (rPOPLi) (Leishmania infantum, UniProt A4ICB5)
# T1 construct: gene LINJ_36_7060; full-length, recombinant from E. coli (pET-15b)
# Assay: fluorogenic assay, single concentration […]
# Assay type: biochemical
# T1 sequence (A4ICB5 entry or part of it): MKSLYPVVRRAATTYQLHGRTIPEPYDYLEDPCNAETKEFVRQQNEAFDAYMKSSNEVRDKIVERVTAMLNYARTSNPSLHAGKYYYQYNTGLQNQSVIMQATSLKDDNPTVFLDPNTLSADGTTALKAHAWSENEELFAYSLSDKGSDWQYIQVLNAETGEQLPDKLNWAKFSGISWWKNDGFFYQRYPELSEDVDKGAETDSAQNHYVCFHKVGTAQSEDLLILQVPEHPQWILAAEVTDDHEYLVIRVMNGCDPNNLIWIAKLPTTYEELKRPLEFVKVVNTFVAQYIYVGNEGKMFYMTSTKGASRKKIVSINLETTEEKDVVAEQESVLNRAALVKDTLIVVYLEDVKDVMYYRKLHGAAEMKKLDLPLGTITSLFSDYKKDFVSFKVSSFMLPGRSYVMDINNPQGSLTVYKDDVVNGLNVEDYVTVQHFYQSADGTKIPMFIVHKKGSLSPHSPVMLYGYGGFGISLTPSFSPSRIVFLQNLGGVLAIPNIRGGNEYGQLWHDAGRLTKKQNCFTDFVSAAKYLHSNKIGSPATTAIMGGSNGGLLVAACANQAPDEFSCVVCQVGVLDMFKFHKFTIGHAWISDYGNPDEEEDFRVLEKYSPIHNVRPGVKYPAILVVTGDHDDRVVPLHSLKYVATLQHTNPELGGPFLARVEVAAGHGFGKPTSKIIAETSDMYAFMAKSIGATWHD
inhibition at 100 µM (read-out: Inhibition (%)),SMILES,inhibition at 100 µM
,"Cc1ccc(S(=O)(=O)N[C@@H](CCCCN)C(=O)CCl)cc1 [TLCK, N-α-Tosyl-L-lysine chloromethyl ketone hydrochloride]",96.8%
92.3%,"Cc1ccc(S(=O)(=O)N[C@@H](Cc2ccccc2)C(=O)CCl)cc1 [TPCK, N-p-Tosyl-L-phenylalanine chloromethyl ketone]",
